Assay results as given in US9757399B2, “Butyrylcholinesterase inhibitors” (priority 2006, dated 2017).
Values joined by “and” are separate entries in the source; they are usually repeats but may differ in a detail not shown here. Equal entries are not always repeated. Where two headings read alike, the source gives them in different places.

How the values were obtained:
Protein Kinase A (PKA) = experiment: Protein kinase A activity (histone substrate, Pro-Q stain); type: biochemical; conditions: varying concentrations, 30 minutes on ice, then ATP 30° C. 15 minutes
Method: For protein kinase activity, histone was used as the substrate for protein kinase A (PKA) and glutathione-S-transferase-S6 (GST-S6) for S6K2. Enzyme was pre-incubated with substrate and varying concentrations of inhibitor on ice for 30 minutes. The control sample contained solvent (methanol). ATP was then added to each sample and the cocktail incubated at 30° C. for 15 minutes. Equal amounts of each mixture were fractionated by SDS-PAGE on a 10% acrylamide gel. The gel was fixed in 50% methanol/10% acetic acid, washed with water, and then stained in Pro-Q Stain in the dark for 60 minutes. The gel was then destained, washed, and scanned on a Typhoon Imager (FIG. 5).

[1] = molecular target: T1, Acetylcholinesterase (from electric eel) (Electrophorus electricus, UniProt O42275); experiment: Acetylcholinesterase activity, Ellman assay after pre-incubation with inhibitor; type: biochemical; conditions: 100 μM compound, 60 minutes at 25° C.; read-out: % Activity ± SD (acetylcholinesterase activity relative to enzyme incubated with solvent)
T1 construct: Acetylcholinesterase (from electric eel); purchased Sigma; host or cells: electric eel (natural source)
T1 sequence (O42275 24-633): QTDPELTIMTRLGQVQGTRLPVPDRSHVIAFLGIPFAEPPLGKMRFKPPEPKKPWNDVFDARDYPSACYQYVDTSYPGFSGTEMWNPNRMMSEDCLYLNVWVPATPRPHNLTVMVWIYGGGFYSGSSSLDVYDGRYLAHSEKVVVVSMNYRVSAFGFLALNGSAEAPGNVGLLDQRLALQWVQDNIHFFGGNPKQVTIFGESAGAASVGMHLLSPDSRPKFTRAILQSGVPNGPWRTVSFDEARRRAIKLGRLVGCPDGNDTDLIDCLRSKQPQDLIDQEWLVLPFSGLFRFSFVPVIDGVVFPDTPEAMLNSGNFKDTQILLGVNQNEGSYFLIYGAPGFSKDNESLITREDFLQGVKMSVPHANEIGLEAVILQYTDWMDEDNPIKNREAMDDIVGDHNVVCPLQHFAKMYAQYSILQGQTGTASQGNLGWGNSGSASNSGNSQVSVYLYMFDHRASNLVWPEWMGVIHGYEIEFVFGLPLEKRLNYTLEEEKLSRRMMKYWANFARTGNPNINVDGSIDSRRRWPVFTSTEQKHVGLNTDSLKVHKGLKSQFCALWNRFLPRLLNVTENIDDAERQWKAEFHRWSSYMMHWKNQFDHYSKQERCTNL
Method: Acetylcholinesterase (from electric eel), butyrylcholinesterase (from horse serum), DTNB, butyrylthiocholine, acetylthiocholine, and BSA were purchased from Sigma. The dialkyl 2-chlorophenyl (and 4-chlorophenyl) phosphates were solubilized in reagent grade methanol.
Cholinesterase activity measurements were performed essentially according to the method of Ellman (Biochemical Pharmacology 7:88-90, 1961). The composition of the assay mixture was 0.1 M sodium phosphate, pH 7.5, 0.033 M DTNB, 0.001 M MgCl2, and 100 μg/mL of BSA containing appropriate amounts of substrate and inhibitor. Each assay was initiated by the addition of substrate and the activity quantified by measuring the formation of the thionitrobenzoate anion at 412 nm at 37° C. Methanol used to solubilize the dialkyl phenyl phosphates [1% (v/v) final concentration] had no inhibitory effect on either enzyme.
Butyrylcholinesterase was pre-incubated at room temperature with inhibitor in the assay cocktail minus substrate for varying periods of time at 25° C. Substrate was then added and the activity measured as described above. The relative rates of enzyme inactivation were determined by plotting enzyme activity versus time of pre-incubation with inhibitor. Results were expressed as the rate constant for the rate of enzyme inactivation. In the case of AcChase, results were expressed as the % of activity remaining relative to the enzyme incubated only with solvents.
The first series of experiments determined the effect of the dialkyl 2-chlorophenyl (and 4-chlorophenyl) phosphates on both AcChase and BuChase. None of the compounds had any inhibitory effect on AcChase (See Table 1). In Table 1, AcChase was incubated with 100 μM of the indicated phenyl phosphate for 60 minutes at 25° C. and then assayed as described above. Results were expressed as the % activity relative to enzyme incubated with solvent ±SD (standard deviation).

[2] = type: in vivo, male Long-Evans rats; conditions: rat, intraperitoneal 0.2 mL of 10 mg/mL in DMSO, 30 minutes, brain tissue (1.5 g), GC/MS; one value per animal
Method: An animal study using two groups (n=7/group) of male Long-Evans rats (200-225 g, Charles River, Portage, Mich.) was conducted to determine whether DB2ClPP crosses the blood brain barrier. DB2ClPP was dissolved in dimethyl sulfoxide (DMSO). Rats were injected intraperitoneally with either 0.2 mL DMSO (vehicle control) or 0.2 mL of a 10 mg/mL solution of DB2ClPP with DMSO as solvent. Thirty minutes after DB2ClPP treatment, animals were deeply anesthetized with isoflurane and then decapitated. Brains were removed quickly, rinsed in ice cold phosphate buffer saline (pH 7.4) and block dissected and flash frozen in liquid nitrogen and stored at −80° C. until assayed.
The tissue from two animals injected with DB2ClPP were processed as follows: i) brain tissue (1.5 g) was allowed to thaw on ice in a Dounce homogenizer; ii) 10 mL of methylene chloride was added and the tissue extracted with 20 strokes of the loose fitting pestle. The homogenate was clarified by centrifugation and the supernatant extracted three times with methylene chloride using a separatory funnel. The organic phase was collected, pooled, and dried over magnesium sulfate. The eluate was then concentrated down to a volume of approximately 200 μl under nitrogen and analyzed by GC/MS for the presence of the DB2ClPP. A solution of neat DB2ClPP served as control. The DB2ClPP was present in both samples. […]

hexokinase = experiment: Hexokinase activity (NADPH generation); type: biochemical; conditions: 10 μM, 60 min at 25° C.
Method: The effect of DB2ClPP on hexokinase activity was assayed. Hexokinase was incubated with solvent, 10 mM iodoacetamide (a known hexokinase inhibitor), or 10 μM DB2CPP for 60 min at 25° C. Enzyme activity is given as the nmoles of NADPH generated per min at 25° C. Data shown are the mean of three replicates ±SEM. (FIG. 6)

[3] = test system: porcine umbilical stem cells; type: in vitro ADME
Method: In addition, uptake of di-n-butyl-2-chlorophenyl phosphate by porcine umbilical stem cells was measured after 24 and 48 hours of culture (Table 5).

BuChase = molecular target: T2, BuChase (Equus caballus, UniProt P81908); experiment: MALDI-TOF of tryptic peptides of inhibitor-treated BuChase
T2 construct: butyrylcholinesterase (from horse serum); purchased Sigma; host or cells: horse serum (natural source)
T2 sequence (P81908 whole entry): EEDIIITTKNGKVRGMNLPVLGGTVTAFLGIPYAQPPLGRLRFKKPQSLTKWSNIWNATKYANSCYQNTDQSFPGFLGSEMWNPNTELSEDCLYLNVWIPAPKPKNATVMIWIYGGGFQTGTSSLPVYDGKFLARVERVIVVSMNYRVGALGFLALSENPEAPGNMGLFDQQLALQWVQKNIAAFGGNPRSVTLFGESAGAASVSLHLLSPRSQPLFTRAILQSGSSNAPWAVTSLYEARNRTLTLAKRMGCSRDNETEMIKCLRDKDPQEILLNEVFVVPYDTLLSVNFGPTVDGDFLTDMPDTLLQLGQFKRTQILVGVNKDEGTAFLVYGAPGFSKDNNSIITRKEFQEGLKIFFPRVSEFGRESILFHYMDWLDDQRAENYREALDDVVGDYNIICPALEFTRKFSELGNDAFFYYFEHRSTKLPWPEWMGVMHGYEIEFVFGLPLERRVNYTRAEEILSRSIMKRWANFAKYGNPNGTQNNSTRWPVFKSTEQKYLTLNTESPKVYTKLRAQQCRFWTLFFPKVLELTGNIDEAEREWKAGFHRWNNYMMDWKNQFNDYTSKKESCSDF
Method: BuChase was incubated with di-n-butyl-2-chlorophenyl phosphate. Excess inhibitor was removed and the enzyme was digested with trypsin. The tryptic peptides were then analyzed by MALDI-TOF. Unmodified peptide containing the active site serine (MW 2198.86) and modified peptide (MW 2390.9060) can be seen. […] Irreversible inhibitors usually covalently modify an enzyme, and inhibition cannot therefore be reversed.

chymotrypsin = experiment: Chymotrypsin activity (ATEE hydrolysis); type: biochemical; conditions: 10 μM, 60 minutes at 25° C.
Method: The effect of DB2ClPP on the activity of chymotrypsin was assayed. […] was incubated with solvent, 10 μM DB2CPP, or 10 μM PMSF (a known inhibitor of chymotrypsin) for 60 minutes at 25° C. to determine any inhibitory effect of DB2CPP on enzymatic activity. Enzyme activity is given as nmoles of ATEE hydrolyzed per minute at 25° C. Data shown are the mean of three replicates ±SEM. (FIG. 4)

butyrylcholinesterase = molecular target: T3, butyrylcholinesterase (Equus caballus, UniProt P81908); experiment: Reactivation of inactive butyrylcholinesterase; type: biochemical, horse
T3 construct: butyrylcholinesterase (from horse serum); purchased Sigma; host or cells: horse serum (natural source)
T3 sequence (P81908 whole entry): as above
Method: BuChase was incubated with excess di-butyl 2-chlorophenyl phosphate for 60 min at 4° C. The excess phosphate was removed using a desalting column. The inactivated BuChase was incubated at 4° C. for various periods of time and then assayed for activity. […]

Structure (SMILES): CCCCOP(=O)(OCCCC)Oc1ccccc1Cl [DB2ClPP, Di-n-butyl 2-chlorophenyl phosphate]
- effect on PKA activity (FIG. 5) (Protein Kinase A (PKA)): none of the above mentioned enzymes were affected
- activity at 100 µM [1]: 97.6 ± 0.029%
- amount of DB2ClPP in brain sample [2]: 220 ng and 125 ng
- effect on hexokinase activity (FIG. 6) (hexokinase): none of the above mentioned enzymes were affected
- fg DB2Cl-PP/cell (±SEM) ([3]; 0 hours): 2.55 ± 0.011 fg/cell
- fg DB2Cl-PP/cell (±SEM) ([3]; 24 hours): 11.57 ± 1.02 fg/cell
- fg DB2Cl-PP/cell (±SEM) ([3]; 48 hours): 13.62 ± 0.003 fg/cell
- type of inhibition from covalent modification of active site serine peptide (FIG. 12) (BuChase): likely an irreversible inhibitor
- effect on chymotrypsin activity (FIG. 4) (chymotrypsin): none of the above mentioned enzymes were affected
- % Remaining Activity (butyrylcholinesterase; 0 hours at 4° C. after removal of excess inhibitor): 0.6%
- % Remaining Activity (butyrylcholinesterase; 3.5 hours at 4° C. after removal of excess inhibitor): 0.6%
- % Remaining Activity (butyrylcholinesterase; 7 hours at 4° C. after removal of excess inhibitor): 0.8%
- % Remaining Activity (butyrylcholinesterase; 24 hours at 4° C. after removal of excess inhibitor): 1.1%
- reactivation of inactivated BuChase (butyrylcholinesterase; over 24 hours at 4° C.): no significant reactivation
